This passage reports IC50 results from patent US12012409B2, “Bicyclic heterocycles as FGFR inhibitors” (Incyte Corporation, priority 2020, dated 2024).

Holding throughout (type): biochemical
Common to all, as to settings: wild-type un-phosphorylated protein; pre-incubated for 4 hours; ATP near or below Km

In experiment [1] the target is wild-type un-phosphorylated FGFR1 (Homo sapiens, UniProt P11362). Briefly: FGFR Enzymatic Assay (FRET peptide phosphorylation), FGFR1. How it is done:
(§1) The inhibitor potency of the exemplified compounds was determined in an enzyme discontinuous assay that measures peptide phosphorylation using FRET measurements to detect product formation. Inhibitors were serially diluted in DMSO and a volume of 0.2 μL was transferred to the wells of a 384-well plate. […] Appropriate controls (enzyme blank and enzyme with no inhibitor) were included on the plate. […] The ATP Km values were pre-determined in a separate series of experiments. […] The plate was allowed to equilibrate for ˜10 minutes at ambient temperature before scanning on a PheraStar plate reader (BMG Labtech) instrument.
(§2) Either GraphPad prism or XLfit was used to analyze the data. The IC50 values were derived by fitting the data to a four parameter logistic equation producing a sigmoidal dose-response curve with a variable Hill coefficient. Prism equation: Y=Bottom+(Top−Bottom)/(1+10^((LogIC50−X)*Hill slope)); XLfit equation: Y=(A+((B−A)/(1+((X/C)^D)))) where X is the logarithm of inhibitor concentration and Y is the response.

Experiment [2] addresses wild-type un-phosphorylated FGFR3 (Homo sapiens, UniProt P22607). Description: FGFR Enzymatic Assay (FRET peptide phosphorylation), FGFR3. How it is done: as §1, §2
In experiment [3] the target is wild-type un-phosphorylated FGFR2 (Homo sapiens, UniProt P21802). Briefly: FGFR Enzymatic Assay (FRET peptide phosphorylation), FGFR2. How it is done:
as §1, §2
The data in Table 1 was measured in wild-type un-phosphorylated FGFR1, FGFR2, FGFR3 and FGFR4 protein.

Sequence of wild-type un-phosphorylated FGFR1 (P11362 22-822): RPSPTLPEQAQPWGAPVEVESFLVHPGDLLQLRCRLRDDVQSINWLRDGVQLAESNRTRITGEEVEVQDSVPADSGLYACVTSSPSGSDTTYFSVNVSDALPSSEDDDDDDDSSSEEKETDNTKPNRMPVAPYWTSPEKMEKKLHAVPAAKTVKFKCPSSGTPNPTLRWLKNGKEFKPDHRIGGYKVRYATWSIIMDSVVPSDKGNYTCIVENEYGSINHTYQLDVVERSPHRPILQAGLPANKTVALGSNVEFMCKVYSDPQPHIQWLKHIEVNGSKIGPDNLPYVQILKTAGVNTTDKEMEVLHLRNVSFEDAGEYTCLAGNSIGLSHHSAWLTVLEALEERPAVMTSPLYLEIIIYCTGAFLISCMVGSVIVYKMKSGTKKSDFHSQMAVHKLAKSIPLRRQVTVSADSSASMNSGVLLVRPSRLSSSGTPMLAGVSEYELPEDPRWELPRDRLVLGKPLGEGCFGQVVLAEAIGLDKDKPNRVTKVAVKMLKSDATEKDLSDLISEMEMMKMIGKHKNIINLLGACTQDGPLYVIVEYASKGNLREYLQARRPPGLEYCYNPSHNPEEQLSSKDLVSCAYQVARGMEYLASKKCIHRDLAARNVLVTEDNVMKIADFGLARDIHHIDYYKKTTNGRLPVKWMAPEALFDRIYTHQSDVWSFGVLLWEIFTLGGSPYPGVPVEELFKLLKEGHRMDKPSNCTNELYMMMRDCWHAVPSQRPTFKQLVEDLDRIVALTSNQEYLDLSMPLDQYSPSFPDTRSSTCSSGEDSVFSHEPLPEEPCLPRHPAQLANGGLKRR
Sequence of wild-type un-phosphorylated FGFR3 (P22607 23-806): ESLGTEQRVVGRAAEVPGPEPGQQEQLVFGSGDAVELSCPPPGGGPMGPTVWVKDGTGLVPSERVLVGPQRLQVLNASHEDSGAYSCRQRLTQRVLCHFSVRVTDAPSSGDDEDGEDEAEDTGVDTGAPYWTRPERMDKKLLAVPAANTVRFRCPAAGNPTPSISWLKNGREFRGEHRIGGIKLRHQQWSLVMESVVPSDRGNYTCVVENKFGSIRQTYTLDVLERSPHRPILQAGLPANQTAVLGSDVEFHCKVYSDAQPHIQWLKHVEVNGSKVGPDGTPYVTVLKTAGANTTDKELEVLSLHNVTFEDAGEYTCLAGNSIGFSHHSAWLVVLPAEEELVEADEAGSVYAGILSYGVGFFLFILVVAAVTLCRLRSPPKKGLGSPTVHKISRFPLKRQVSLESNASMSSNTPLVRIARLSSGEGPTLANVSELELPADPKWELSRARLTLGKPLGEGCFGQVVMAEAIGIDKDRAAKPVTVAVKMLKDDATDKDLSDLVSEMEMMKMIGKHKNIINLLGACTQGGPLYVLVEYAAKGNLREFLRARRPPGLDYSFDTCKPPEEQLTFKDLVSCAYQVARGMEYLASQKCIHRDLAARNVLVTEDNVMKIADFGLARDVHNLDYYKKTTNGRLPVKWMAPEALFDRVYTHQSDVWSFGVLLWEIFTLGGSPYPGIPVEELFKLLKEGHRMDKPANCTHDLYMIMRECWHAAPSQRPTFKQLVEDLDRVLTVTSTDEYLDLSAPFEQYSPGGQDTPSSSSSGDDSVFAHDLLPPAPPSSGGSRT
Sequence of wild-type un-phosphorylated FGFR2 (P21802 22-821): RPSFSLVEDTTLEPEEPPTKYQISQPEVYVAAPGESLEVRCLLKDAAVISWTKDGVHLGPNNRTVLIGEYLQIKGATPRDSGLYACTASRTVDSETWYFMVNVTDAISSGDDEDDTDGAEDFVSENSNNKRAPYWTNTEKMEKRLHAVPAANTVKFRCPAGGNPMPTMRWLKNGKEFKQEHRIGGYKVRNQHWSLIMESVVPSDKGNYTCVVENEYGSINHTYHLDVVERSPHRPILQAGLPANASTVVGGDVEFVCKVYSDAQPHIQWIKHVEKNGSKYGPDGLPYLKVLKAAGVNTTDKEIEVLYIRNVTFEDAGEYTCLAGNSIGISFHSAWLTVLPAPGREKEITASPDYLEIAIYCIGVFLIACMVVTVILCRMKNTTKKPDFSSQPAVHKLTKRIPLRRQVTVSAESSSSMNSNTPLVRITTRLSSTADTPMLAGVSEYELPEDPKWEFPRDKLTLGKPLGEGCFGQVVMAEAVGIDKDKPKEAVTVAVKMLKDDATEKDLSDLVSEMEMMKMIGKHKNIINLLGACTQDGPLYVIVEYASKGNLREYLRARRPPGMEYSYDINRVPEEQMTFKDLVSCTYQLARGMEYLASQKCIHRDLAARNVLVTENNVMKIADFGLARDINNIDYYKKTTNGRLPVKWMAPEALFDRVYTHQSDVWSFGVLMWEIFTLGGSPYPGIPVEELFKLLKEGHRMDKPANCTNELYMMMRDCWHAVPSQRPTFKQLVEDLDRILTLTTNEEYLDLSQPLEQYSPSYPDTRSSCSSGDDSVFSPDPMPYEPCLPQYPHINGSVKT

With `CNC(=O)c1cccc(-c2cnc3cc(-c4cnn(C)c4)c(OC4CC(C#N)C4)nn23)c1` (centres unmarked) [Example 56, 3-(6-(3-Cyanocyclobutoxy)-7-(1-methyl-1H-pyrazol-4-yl)imidazo[1,2-b]pyridazin-3-yl)-N-methylbenzamide], the IC50 in experiment [1] and in experiment [2] was 100 to 400 nM in each case.
Consider `CNC(=O)c1ccc(OC)c(-c2cnc3cc(-c4cnn(C)c4)c(OC)nn23)c1` [Example 12, 4-Methoxy-3-(6-methoxy-7-(1-methyl-1H-pyrazol-4-yl)imidazo[1,2-b]pyridazin-3-yl)-N-methylbenzamide], for which the IC50 in experiment [1] and in experiment [2] was at least 400 nM in each case.
Consider `COc1nn2c(-c3cncc(C)c3)cnc2cc1-c1cnn(C)c1` [Example 3, 6-Methoxy-7-(1-methyl-1H-pyrazol-4-yl)-3-(5-methylpyridin-3-yl)imidazo[1,2-b]pyridazine], for which the IC50 in experiment [1] was at least 400 nM; in experiment [2], 100 to 400 nM.
For `COc1nn2c(-c3cccc(CC#N)c3)cnc2cc1-c1cnn(C)c1` [Example 7, 2-(3-(6-Methoxy-7-(1-methyl-1H-pyrazol-4-yl)imidazo[1,2-b]pyridazin-3-yl)phenyl)acetonitrile], the IC50 in experiment [1] and in experiment [2] was 10 to 100 nM in each case.
With `COc1nn2c(-c3cccc(NC(C)=O)c3)cnc2cc1-c1cnn(C)c1` [Example 10, N-(3-(6-Methoxy-7-(1-methyl-1H-pyrazol-4-yl)imidazo[1,2-b]pyridazin-3-yl)phenyl)acetamide], the half-maximal inhibitory concentration (IC50) in experiment [1] and in experiment [2] was under 10 nM throughout.
As for `Cn1cc(-c2cc3ncc(-c4ccc5oncc5c4)n3nc2OC2CCOC2)cn1` (centres unmarked) [Example 66, 5-(7-(1-Methyl-1H-pyrazol-4-yl)-6-((tetrahydrofuran-3-yl)oxy)imidazo[1,2-b]pyridazin-3-yl)benzo[d]isoxazole], the half-maximal inhibitory concentration (IC50) was in the range of 100 to 400 nM in experiment [1] and 10 to 100 nM in experiment [2].
For `CNC(=O)c1cc(F)c(F)c(-c2cnc3cc(-c4cnn(C)c4)c(O[C@H]4CCNC4)nn23)c1` [Example 17, (S)-3,4-Difluoro-N-methyl-5-(7-(1-methyl-1H-pyrazol-4-yl)-6-(pyrrolidin-3-yloxy)imidazo[1,2-b]pyridazin-3-yl)benzamide] the same measures were at least 400 nM and 10 to 100 nM.
Turning to `CNC(=O)c1cncc(-c2cnc3cc(-c4cnn(C)c4)c(OC)nn23)c1` [Example 4, 5-(6-Methoxy-7-(1-methyl-1H-pyrazol-4-yl)imidazo[1,2-b]pyridazin-3-yl)-N-methylnicotinamide], in experiment [3], the IC50 is 100 to 400 nM.
As to `CNC(=O)c1cc(-c2cnc3cc(-c4cnn(C)c4)c(O[C@H]4CCOC4)nn23)c(F)c(C(F)F)c1` [Example 41, (S)-3-(Difluoromethyl)-4-fluoro-N-methyl-5-(7-(1-methyl-1H-pyrazol-4-yl)-6-((tetrahydrofuran-3-yl)oxy)imidazo[1,2-b]pyridazin-3-yl)benzamide], the concentration for half-maximal inhibition (IC50) in experiment [3] was under 10 nM.
Take `COc1nn2c(-c3cc(C(=O)NCC(F)(F)F)ccc3F)cnc2cc1-c1cnn(C)c1` [Example 14, 4-Fluoro-3-(6-methoxy-7-(1-methyl-1H-pyrazol-4-yl)imidazo[1,2-b]pyridazin-3-yl)-N-(2,2,2-trifluoroethyl)benzamide]: the IC50 in experiment [1] and in experiment [2] was 10 to 100 nM in each case.
For `CNC(=O)c1cc(F)c(F)c(-c2cnc3cc(-c4cnn(C)c4)c(O[C@H]4CCN(C)C4)nn23)c1` [Example 16, (S)-3,4-Difluoro-N-methyl-5-(7-(1-methyl-1H-pyrazol-4-yl)-6-((1-methylpyrrolidin-3-yl)oxy)imidazo[1,2-b]pyridazin-3-yl)benzamide], the half-inhibitory concentration (IC50) in experiment [1] and in experiment [2] was at least 400 nM each time.
Take `COc1nn2c(-c3cccc(N4CCOCC4)c3)cnc2cc1-c1cnn(C)c1` [Example 6, 4-(3-(6-Methoxy-7-(1-methyl-1H-pyrazol-4-yl)imidazo[1,2-b]pyridazin-3-yl)phenyl)morpholine]: the half-inhibitory concentration (IC50) in experiment [1] and in experiment [2] was 100 to 400 nM each time.
Turning to `CNC(=O)c1cc(F)c(F)c(-c2cnc3cc(-c4cnn(C)c4)c(O[C@H]4CCOC4)nn23)c1` [Example 43, (S)-3,4-Difluoro-N-methyl-5-(7-(1-methyl-1H-pyrazol-4-yl)-6-((tetrahydrofuran-3-yl)oxy)imidazo[1,2-b]pyridazin-3-yl)benzamide], the 50% inhibitory concentration (IC50) in experiment [3] was under 10 nM.
Consider `COc1nn2c(-c3ccc4ncccc4c3)cnc2cc1-c1cnn(C)c1` [Example 5, 6-(6-Methoxy-7-(1-methyl-1H-pyrazol-4-yl)imidazo[1,2-b]pyridazin-3-yl)quinoline], for which the IC50 in experiment [1] and in experiment [2] was 100 to 400 nM each time.
Turning to `Cn1cc(-c2cc3ncc(-c4cccc(-n5cccn5)c4)n3nc2OC2COC2)cn1` [Example 61, 3-(3-(1H-Pyrazol-1-yl)phenyl)-7-(1-methyl-1H-pyrazol-4-yl)-6-(oxetan-3-yloxy)imidazo[1,2-b]pyridazine], the IC50 in experiment [1] and in experiment [2] was 10 to 100 nM throughout.
For the compound `CNC(=O)c1cc(-c2ccc(F)cc2F)cc(-c2cnc3cc(-c4cnn(C)c4)c(OC)nn23)c1` [Example 11, 2′,4′-Difluoro-5-(6-methoxy-7-(1-methyl-1H-pyrazol-4-yl)imidazo[1,2-b]pyridazin-3-yl)-N-methyl-[1,1′-biphenyl]-3-carboxamide], the figures for the IC50 in experiment [1] and in experiment [2] were 10 to 100 nM and under 10 nM, respectively.
For the compound `CNC(=O)c1cc(F)c(F)c(-c2cnc3cc(-c4cnn(C)c4)c(O[C@H]4CCNC4=O)nn23)c1` [Example 18, (S)-3,4-Difluoro-N-methyl-5-(7-(1-methyl-1H-pyrazol-4-yl)-6-((2-oxopyrrolidin-3-yl)oxy)imidazo[1,2-b]pyridazin-3-yl)benzamide], the IC50 in experiment [1] is 10 to 100 nM; in experiment [2], under 10 nM.
For `CNC(=O)c1cccc(-c2cnc3cc(-c4cnn(C)c4)c(O[C@H]4CCOC4)nn23)c1` [Example 63, (S)-N-Methyl-3-(7-(1-methyl-1H-pyrazol-4-yl)-6-((tetrahydrofuran-3-yl)oxy)imidazo[1,2-b]pyridazin-3-yl)benzamide], the IC50 in experiment [3] was under 10 nM.
With `CNC(=O)c1cncc(-c2cnc3cc(-c4cnn(C)c4)c(OC4COC4)nn23)c1` [Example 15, N-Methyl-5-(7-(1-methyl-1H-pyrazol-4-yl)-6-(oxetan-3-yloxy)imidazo[1,2-b]pyridazin-3-yl)nicotinamide], the half-inhibitory concentration (IC50) in experiment [1] was 10 to 100 nM; in experiment [2], under 10 nM.
For `Cc1cc(-c2cn(C)nn2)cc(-c2cnc3cc(-c4cnn(C)c4)c(O[C@H]4CCOC4)nn23)c1F` [Example 39, (S)-3-(2-Fluoro-3-methyl-5-(1-methyl-1H-1,2,3-triazol-4-yl)phenyl)-7-(1-methyl-1H-pyrazol-4-yl)-6-((tetrahydrofuran-3-yl)oxy)imidazo[1,2-b]pyridazine], in that order: at least 400 nM and 100 to 400 nM.
For the compound `CNC(=O)c1ccc(C#N)c(-c2cnc3cc(-c4cnn(C)c4)c(OC)nn23)c1` [Example 13, 4-Cyano-3-(6-methoxy-7-(1-methyl-1H-pyrazol-4-yl)imidazo[1,2-b]pyridazin-3-yl)-N-methylbenzamide], the half-maximal inhibitory concentration (IC50) in experiment [1] and in experiment [2] was at least 400 nM each time.
For `Cn1cc(-c2cc3ncc(-c4ccc5cnn(C)c5c4)n3nc2OC2CCOC2)cn1` (centres unmarked) [Example 65, 3-(1-Methyl-1H-indazol-6-yl)-7-(1-methyl-1H-pyrazol-4-yl)-6-((tetrahydrofuran-3-yl)oxy)imidazo[1,2-b]pyridazine], the concentration for half-maximal inhibition (IC50) was at least 400 nM in experiment [1] and 100 to 400 nM in experiment [2].
In the case of `CNC(=O)c1cncc(-c2cnc3cc(-c4cnn(C)c4)c(OCC(F)F)nn23)c1` [Example 50, 5-(6-(2,2-Difluoroethoxy)-7-(1-methyl-1H-pyrazol-4-yl)imidazo[1,2-b]pyridazin-3-yl)-N-methylnicotinamide], the concentration for half-maximal inhibition (IC50) in experiment [1] was at least 400 nM; in experiment [2], 10 to 100 nM.
With `COc1nn2c(-c3cccc(C(C)(C)O)c3)cnc2cc1-c1cnn(C)c1` [Example 9, 2-(3-(6-Methoxy-7-(1-methyl-1H-pyrazol-4-yl)imidazo[1,2-b]pyridazin-3-yl)phenyl)propan-2-ol], the 50% inhibitory concentration (IC50) in experiment [1] and in experiment [2] was 10 to 100 nM each time.
As to `CNC(=O)c1cc(-c2cnc3cc(-c4cnn(C)c4)c(O[C@H]4CCOC4)nn23)c(F)c(C2CC2)c1` [Example 38, (S)-3-Cyclopropyl-4-fluoro-N-methyl-5-(7-(1-methyl-1H-pyrazol-4-yl)-6-((tetrahydrofuran-3-yl)oxy)imidazo[1,2-b]pyridazin-3-yl)benzamide], the IC50 was 10 to 100 nM in experiment [1] and under 10 nM in experiment [2].
For `CNC(=O)c1cc(-c2cnc3cc(-c4cnn(C)c4)c(O[C@H]4CCOC4)nn23)c(F)c(N(C)C)c1` [Example 37, (S)-3-(Dimethylamino)-4-fluoro-N-methyl-5-(7-(1-methyl-1H-pyrazol-4-yl)-6-((tetrahydrofuran-3-yl)oxy)imidazo[1,2-b]pyridazin-3-yl)benzamide] the same measures were 100 to 400 nM and 10 to 100 nM.
Turning to `CNS(=O)(=O)c1cccc(-c2cnc3cc(-c4cnn(C)c4)c(OC)nn23)c1` [Example 8, 3-(6-Methoxy-7-(1-methyl-1H-pyrazol-4-yl)imidazo[1,2-b]pyridazin-3-yl)-N-methylbenzenesulfonamide], the concentration for half-maximal inhibition (IC50) in experiment [1] and in experiment [2] was under 10 nM each time.
